Values quoted from earlier work as cited in patent EP3072528B1, “COMPOSITION COMPRISING VEMURAFENIB AND CATIONIC COPOLYMER BASED ON METHACRYLATES” (ratiopharm GmbH, priority 2015, dated 2016).

Details: reported; BCS IV compound

solubility in aqueous and physiological solvents: practically insoluble
Compound: CCCS(=O)(=O)Nc1ccc(F)c(C(=O)c2c[nH]c3ncc(-c4ccc(Cl)cc4)cc23)c1F [Vemurafenib base, N-(3-{[5-(4-chlorophenyl)-1H-pyrrolo[2,3-b]pyridin-3-yl]carbonyl}-2,4-difluorophenyl)propane-1-sulfonamide]
